Data as given in US12351555B2, “Process for synthesizing apremilast” (AMGEN INC., priority 2021, dated 2025).

Experiment: Moisture sorption analysis (DVS) of crystal Form B of apremilast
Type: physicochemical
Text: FIG. 3B depicts a representative DVS plot of crystal Form B of apremilast.
The crystalline apremilast formed in the disclosed processes can be any crystalline form. Various crystalline apremilast forms are described in detail in PCT Publication No. WO 2009/120167, the disclosure of which is incorporated by reference in its entirety. In various embodiments, the crystalline apremilast formed by the processes disclosed herein can be Form A, Form B, or Form F. In some cases, the crystalline apremilast is Form B. Form B may be characterized by X-ray powder diffraction analysis. In certain embodiments, Form B is characterized by XRPD peaks located at one, two, three, four, five, six, seven, eight, nine, ten, eleven or twelve of the following approximate positions: 10.1, 12.4, 13.5, 15.7, 16.3, 18.1, 20.7, 22.5, 24.7, 26.2, 26.9, 29.1 degrees 2θ. […] In certain embodiments, Form B may be characterized by thermal analysis. In certain embodiments, Form B is characterized by a DSC plot comprising an endothermic event with an onset temperature of about 154° C. In certain embodiments, Form B is characterized by a TGA plot comprising a mass loss of less than about 1%, e.g., about 0.25%, of the total mass of the sample upon heating from about 25° C. to about 140° C. […] In certain embodiments, Form B is anhydrous. In certain embodiments, Form B is unsolvated. In certain embodiments, Form B may be characterized by moisture sorption analysis. […] In certain embodiments, mass gained upon adsorption is lost when the RH is decreased back to about 0% RH.

SMILES: CCOc1cc(C(CS(C)(=O)=O)N2C(=O)c3cccc(NC(C)=O)c3C2=O)ccc1OC (single isomer, unassigned; (+)) [Form B, (+)-2-[1-(3-ethoxy-4-methoxyphenyl)-2-methylsulfonylethyl]-4-acetylaminoisoindoline-1,3-dione]
- stability with respect to humidity: stable with respect to humidity
- XRPD pattern following the adsorption/desorption analysis (after adsorption/desorption analysis): substantially unchanged
- hygroscopicity (moisture sorption analysis): substantially nonhygroscopic
